# Results from ChEMBL document CHEMBL1201862, “PubChem BioAssay data set” (2004).
# Activity calls are given as the source filed them.
# Legend:
# [1] = target: T1, Polyadenylate-binding protein 1 (Homo sapiens, UniProt P11940); experiment: MLLE binding blockers, Cy5 peptide tracer – biochemical, fluorescence polarization, Cy5-PAM2 peptide, secondary, miRNA deadenylation inhibitor project, dose response (AID 602260); type: functional; details: read-out: IC50_Mean
# [2] = target: T1, Polyadenylate-binding protein 1; experiment: MLLE domain peptide-binding blockers, IC50 – biochemical, fluorescence polarization, FITC-PAM2 peptide, dose response (AID 602259); type: functional; details: read-out: IC50_Mean
# [3] = viability of uninfected HEp-2 cells – cell-based, HTS, cytotoxicity control for RSV inhibitor project, dose response (AID 2410); type: functional; details: human respiratory syncytial virus
# [4] = target: T2, Calpain-2 catalytic subunit (Sus scrofa, UniProt P43367); experiment: m-calpain protease blockers, concentration series – biochemical, fluorogenic peptide substrate, dose response (AID 1420); type: functional
# T2 sequence (P43367 whole entry): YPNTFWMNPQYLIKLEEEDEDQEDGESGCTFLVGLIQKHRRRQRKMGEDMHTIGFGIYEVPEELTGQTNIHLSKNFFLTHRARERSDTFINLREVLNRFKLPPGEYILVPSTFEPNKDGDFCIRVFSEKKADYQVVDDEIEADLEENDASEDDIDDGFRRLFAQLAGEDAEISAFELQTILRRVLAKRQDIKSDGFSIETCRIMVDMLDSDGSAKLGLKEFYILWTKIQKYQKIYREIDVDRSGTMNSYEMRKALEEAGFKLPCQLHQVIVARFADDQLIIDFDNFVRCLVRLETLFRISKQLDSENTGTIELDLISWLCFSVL
# [5] = target: T3, High affinity choline transporter 1 (Homo sapiens, UniProt Q9GZV3); experiment: human choline transporter blockers, potency – cell-based, 5-point CRC, membrane potential dye, dose response (AID 504840); type: functional
# T3 sequence (Q9GZV3 whole entry): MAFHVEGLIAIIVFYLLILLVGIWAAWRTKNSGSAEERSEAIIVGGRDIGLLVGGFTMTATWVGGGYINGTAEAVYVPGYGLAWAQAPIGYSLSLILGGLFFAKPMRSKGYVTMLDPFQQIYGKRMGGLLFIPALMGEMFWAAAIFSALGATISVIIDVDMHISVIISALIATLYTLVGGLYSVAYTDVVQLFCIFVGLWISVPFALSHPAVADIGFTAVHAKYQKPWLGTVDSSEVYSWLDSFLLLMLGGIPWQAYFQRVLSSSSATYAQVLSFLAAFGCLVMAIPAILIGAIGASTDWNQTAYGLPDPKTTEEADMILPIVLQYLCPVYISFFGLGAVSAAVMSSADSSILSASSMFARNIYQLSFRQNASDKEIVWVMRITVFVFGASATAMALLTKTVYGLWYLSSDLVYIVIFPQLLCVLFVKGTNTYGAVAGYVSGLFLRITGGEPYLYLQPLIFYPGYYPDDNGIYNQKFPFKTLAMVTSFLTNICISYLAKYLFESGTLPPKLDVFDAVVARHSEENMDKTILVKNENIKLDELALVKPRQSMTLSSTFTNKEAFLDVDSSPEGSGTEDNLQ
# [6] = target: Induced myeloid leukemia cell differentiation protein Mcl-1 (Homo sapiens, UniProt Q07820); type: functional
# Chain of Induced myeloid leukemia cell differentiation protein Mcl-1 (Q07820 whole entry, the tested form may be a part): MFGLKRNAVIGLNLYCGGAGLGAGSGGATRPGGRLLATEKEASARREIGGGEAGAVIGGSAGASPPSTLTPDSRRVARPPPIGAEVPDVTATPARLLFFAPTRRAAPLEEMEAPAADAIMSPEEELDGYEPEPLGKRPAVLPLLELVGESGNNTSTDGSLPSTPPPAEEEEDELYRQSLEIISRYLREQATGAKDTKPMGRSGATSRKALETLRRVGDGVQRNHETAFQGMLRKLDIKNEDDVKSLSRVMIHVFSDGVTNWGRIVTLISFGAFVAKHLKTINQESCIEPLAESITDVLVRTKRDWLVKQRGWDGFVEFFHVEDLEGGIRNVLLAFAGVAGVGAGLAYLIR
# [7] = target: T4, Carboxy-terminal domain RNA polymerase II polypeptide A small phosphatase 1 (Homo sapiens, UniProt Q9GZU7); experiment: CTDSP1 inhibitors, concentration-response, biochemical, absorbance readout, ultra-high-throughput screen actives (AID 540297); type: functional
# T4 sequence (Q9GZU7 whole entry): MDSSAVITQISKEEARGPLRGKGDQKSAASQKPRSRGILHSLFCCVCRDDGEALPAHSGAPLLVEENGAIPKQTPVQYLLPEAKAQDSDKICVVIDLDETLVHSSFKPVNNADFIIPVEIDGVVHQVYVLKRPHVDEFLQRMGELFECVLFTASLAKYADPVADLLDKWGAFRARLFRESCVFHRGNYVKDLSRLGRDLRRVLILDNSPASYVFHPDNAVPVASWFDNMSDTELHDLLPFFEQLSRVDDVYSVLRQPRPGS
# [8] = viability of HCT116 lacking mutant beta-catenin – cell-based, human colon tumor, dose response (AID 1045); type: functional;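 note: HCT116 colon tumor cells with beta catenin knocked out; cells exposed to compound for 60 hours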
# [9] = viability of PTEN-deleted HCT116 cells – cell-based, HCT116 PTEN knockout, dose response (AID 1047); type: functional;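 note: HCT116 colon tumor cells with PTEN knocked out; cells exposed to compound for 60 hours before readout; potency for loss of cell viability measured by luminescence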
# [10] = loss of viability in HepG2 cells – cell-based, CellTiter-Glo, cherry-picked, cytotoxicity control for Shn3 inhibitor project, dose response (AID 624134); type: functional
# INS1 = experiment: INS-1E survival protection against cytokine death – cell-based, luminescence, retest, dose response (AID 449756); type: functional; details: Rattus norvegicus;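 note: cell death triggered by IL-1 beta plus TNF-alpha plus IFN-gamma mixture; protective hits raise ATP signal compared with cytokine alone wells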
# [11] = reduction of Shn3 3'UTR-driven luciferase in osteoblasts – cell-based, Clone20 osteoblasts, firefly luciferase, cherry-picked, dose response (AID 624132); type: functional;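 note: firefly luciferase luminescence from reporter carrying the Shn3 3'UTR in osteoblasts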
# [12] = non-specific 3'UTR reporter inhibition in Clone20-Shn3RL – cell-based, Renilla luciferase, cherry-picked, counter-screen for Shn3 inhibitor project, dose response (AID 624133); type: functional
# [13] = target: T5, Rac GTPase-activating protein 1 (Homo sapiens, UniProt Q9H0H5); experiment: blockers of MgcRacGAP-driven Rac1 GTP hydrolysis – biochemical, ADP Hunter fluorescence, primary and confirmatory, confirmation (AID 624330); type: functional
# T5 sequence (Q9H0H5 whole entry): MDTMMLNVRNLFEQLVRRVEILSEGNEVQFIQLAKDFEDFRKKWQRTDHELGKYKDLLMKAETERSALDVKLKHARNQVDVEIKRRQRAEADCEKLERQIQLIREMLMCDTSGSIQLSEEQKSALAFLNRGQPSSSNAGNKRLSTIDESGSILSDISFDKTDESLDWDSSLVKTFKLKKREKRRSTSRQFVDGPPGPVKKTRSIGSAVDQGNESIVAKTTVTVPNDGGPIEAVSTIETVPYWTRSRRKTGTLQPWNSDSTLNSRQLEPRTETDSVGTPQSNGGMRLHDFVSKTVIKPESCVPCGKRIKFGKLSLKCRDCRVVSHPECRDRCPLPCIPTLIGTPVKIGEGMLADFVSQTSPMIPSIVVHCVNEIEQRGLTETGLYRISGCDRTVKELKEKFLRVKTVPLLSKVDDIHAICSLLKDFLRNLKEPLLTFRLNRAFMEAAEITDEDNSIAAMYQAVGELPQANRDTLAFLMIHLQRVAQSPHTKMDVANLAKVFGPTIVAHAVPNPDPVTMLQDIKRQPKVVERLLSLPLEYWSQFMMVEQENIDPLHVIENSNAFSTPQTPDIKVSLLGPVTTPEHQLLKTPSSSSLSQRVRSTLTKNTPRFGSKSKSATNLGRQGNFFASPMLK
# Cytochrome P450 3A4 = Cytochrome P450 3A4 (Homo sapiens, UniProt P08684);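 note: CYP3A4 tested as one member of a cytochrome P450 panel screen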
# Chain of Cytochrome P450 3A4 (P08684 whole entry): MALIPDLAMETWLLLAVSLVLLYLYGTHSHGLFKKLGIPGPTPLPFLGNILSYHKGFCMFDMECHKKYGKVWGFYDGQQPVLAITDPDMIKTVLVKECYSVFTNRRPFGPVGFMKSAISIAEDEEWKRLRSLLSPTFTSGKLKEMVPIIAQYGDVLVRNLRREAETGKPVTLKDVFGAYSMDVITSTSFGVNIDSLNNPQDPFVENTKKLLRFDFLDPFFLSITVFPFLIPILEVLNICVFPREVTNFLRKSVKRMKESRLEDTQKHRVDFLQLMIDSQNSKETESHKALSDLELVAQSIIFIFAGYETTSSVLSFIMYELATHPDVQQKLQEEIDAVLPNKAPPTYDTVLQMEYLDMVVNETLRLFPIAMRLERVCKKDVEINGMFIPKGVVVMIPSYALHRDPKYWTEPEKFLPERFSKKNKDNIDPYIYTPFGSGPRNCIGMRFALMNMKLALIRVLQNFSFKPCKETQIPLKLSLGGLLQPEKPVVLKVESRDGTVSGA
# Cytochrome P450 1A2 = target: T6, Cytochrome P450 1A2 (Homo sapiens, UniProt P05177);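 note: PubChem cytochrome P450 panel assay, CYP1A2 panel member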
# T6 sequence (P05177 whole entry): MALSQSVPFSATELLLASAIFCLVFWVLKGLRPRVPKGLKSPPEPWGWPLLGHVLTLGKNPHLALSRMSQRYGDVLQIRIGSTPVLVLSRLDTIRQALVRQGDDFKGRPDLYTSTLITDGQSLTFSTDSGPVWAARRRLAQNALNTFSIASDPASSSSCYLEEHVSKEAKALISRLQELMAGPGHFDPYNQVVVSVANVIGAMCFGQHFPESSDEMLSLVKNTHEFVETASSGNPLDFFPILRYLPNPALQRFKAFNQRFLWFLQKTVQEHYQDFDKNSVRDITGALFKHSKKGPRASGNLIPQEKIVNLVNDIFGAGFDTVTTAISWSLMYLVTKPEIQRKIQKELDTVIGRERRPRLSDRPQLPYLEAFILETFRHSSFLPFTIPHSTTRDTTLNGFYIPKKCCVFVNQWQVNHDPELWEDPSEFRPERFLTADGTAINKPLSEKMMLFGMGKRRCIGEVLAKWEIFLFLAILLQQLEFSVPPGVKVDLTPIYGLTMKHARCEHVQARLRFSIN
# P388 = experiment: cells; type: functional; details: Mus musculus
# P388/ADR = experiment: cells; type: functional; details: Mus musculus
# SN12K1 = experiment: cells; type: functional; details: Homo sapiens
# [14] = microbe, parasite or virus in culture; type: functional; details: Mycobacterium tuberculosis
# T1 sequence (P11940 whole entry, the tested form may be a part): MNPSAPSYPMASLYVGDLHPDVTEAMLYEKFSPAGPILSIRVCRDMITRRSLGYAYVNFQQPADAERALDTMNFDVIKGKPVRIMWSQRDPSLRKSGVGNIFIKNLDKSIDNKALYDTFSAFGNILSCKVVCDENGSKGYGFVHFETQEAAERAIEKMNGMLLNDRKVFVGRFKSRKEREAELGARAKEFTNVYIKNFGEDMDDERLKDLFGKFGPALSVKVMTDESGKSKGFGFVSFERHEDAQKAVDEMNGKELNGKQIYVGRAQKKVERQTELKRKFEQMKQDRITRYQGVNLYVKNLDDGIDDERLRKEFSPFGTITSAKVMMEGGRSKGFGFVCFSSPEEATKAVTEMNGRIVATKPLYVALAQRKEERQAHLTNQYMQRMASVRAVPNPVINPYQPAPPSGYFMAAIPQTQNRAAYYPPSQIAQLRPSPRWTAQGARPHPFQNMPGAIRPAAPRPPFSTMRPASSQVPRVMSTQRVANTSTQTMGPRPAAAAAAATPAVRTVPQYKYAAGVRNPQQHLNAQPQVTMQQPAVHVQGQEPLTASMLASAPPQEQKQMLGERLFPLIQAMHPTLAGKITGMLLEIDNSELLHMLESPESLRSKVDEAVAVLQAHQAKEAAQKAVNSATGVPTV
structure (smiles),measurement,setting,value
CCOCC(=O)Nc1nnc(COc2ccc(Cl)cc2)s1,IC50,[1],> 66 µM (inactive)
same,IC50,[2],> 66 µM (inactive)
COc1ccc(CNc2ccc([N+](=O)[O-])cc2C)cc1,CC50,[3],35 µM (active)
same,IC50,[4],3.81 µM (not active)
Cc1noc(NS(=O)(=O)c2ccc(NC(=O)c3ccc(N4C(=O)c5ccccc5C4=O)cc3)cc2)c1C,IC50,[4],4.9 µM (not active)
SC1=NC[C@H](Cc2cccc3ccccc23)N1CC1CCCCC1,IC50,[4],> 50 µM (not active)
CN1C(=O)c2ccc(C(=O)NCc3ccc4c(c3)OCO4)cc2C1=O,IC50,[4],23.2 µM (not active)
Cc1ccc(-c2cc(C(=O)NCCCn3ccnc3)c3cc(Br)ccc3n2)o1,IC50,[5],11.5 µM (active)
same,IC50,[6],3.07 µM (not active)
CCCCc1ccc(NC(=O)C2CCCO2)cc1 (configuration not stated),IC50,[4],13.4 µM (not active)
N#C/C(=C/c1ccc(-c2ccc(C(=O)O)c(Cl)c2)o1)C(=O)NCC1CCCO1 (configuration not stated),IC50,[7],33.2 µM (active)
O=C(CCN1C(=O)/C(=C/c2ccc(F)cc2)SC1=S)Nc1cc([N+](=O)[O-])ccc1O,IC50,[7],7.68 µM (active)
O=C(C1CC1)N1CCc2cc(Br)cc(S(=O)(=O)NC3CCCCC3)c21,IC50,[4],> 50 µM (not active)
c1ccc(N2CCN(c3ncnc4scc(-c5cccs5)c34)CC2)cc1,EC50,[8],71.5 µM (active)
same,IC50,[4],1.1 µM (not active)
same,EC50,[9],56.8 µM (active)
CC1=C(C#N)C(C(F)(F)F)(C(F)(F)F)NC(c2ccco2)=N1,AC50,[10],> 70 µM (inactive)
same,AC50,INS1,4.65 µM (active)
same,AC50,[11],7.72 µM (active)
same,AC50,[12],10.1 µM (active)
COc1ccc(C(=O)CCN2CCC(C)CC2)cc1,IC50,[1],> 66 µM (inactive)
same,IC50,[2],> 66 µM (inactive)
CCN(CC)c1ccc(NC(=O)c2ccccc2OCC(=O)OC)cc1,IC50,[6],6.35 µM (not active)
O=C(/C=C/c1cccs1)N1CCOCC1,IC50,[4],> 50 µM (not active)
CC(=O)c1cccc(NC(=O)COc2cc3oc(=O)c(CC(C)O)c(C)c3cc2Cl)c1 (configuration not stated),IC50,[7],12.5 µM (active)
CCOc1cc(/C=C(\C#N)c2n[nH]c(N)c2C#N)ccc1O,IC50,[13],17.1 µM (active)
same,IC50,[6],5.24 µM (active)
CCNc1nc(NCC)nc(C(=O)NN)n1,IC50,[6],2.32 µM (active)
CC1CCCN(C(=O)c2sc3cc([N+](=O)[O-])ccc3c2Cl)C1 (configuration not stated),AC50,Cytochrome P450 3A4,17.8 µM (inconclusive)
same,AC50,Cytochrome P450 1A2,15.8 µM (inconclusive)
same,IC50,[4],7.61 µM (active)
CCn1c(C)cc(C)[n+]1-c1ccccc1,IC50,[7],13.2 µM (active)
CCCNC(=O)C(C)C1CCC2(C)C=CC(=O)C(C)=C2C1O (configuration not stated),GI50,P388,> 100 µM (inactive)
same,GI50,P388/ADR,> 100 µM (inactive)
same,GI50,SN12K1,> 100 µM (inactive)
CC(/C=N/NC(=O)c1cc(-c2ccc3ccccc3c2)[nH]n1)=C\c1ccco1,CC50,[14],37.2 µM (active)
same,IC50,[6],4.1 µM (active)
C[C@H]1COC(c2ccccn2)=N1,GI50,P388,> 100 µM (inactive)
same,GI50,P388/ADR,> 100 µM (inactive)
same,GI50,SN12K1,> 100 µM (inactive)
CC12CCC3C(CCC4=CC(O)CCC43C=O)C1(O)CCC2c1ccc(=O)oc1 (configuration not stated),GI50,P388,< 0.1 µM (active)
same,GI50,P388/ADR,0.21 µM (active)
same,GI50,SN12K1,0.05 µM (active)
CC1(C)N=C(N)N=C(N)N1c1ccc(CCCCc2ccc(S(=O)(=O)F)cc2Cl)c(Cl)c1,GI50,P388,0.05 µM (active)
same,GI50,P388/ADR,0.369 µM (active)
same,GI50,SN12K1,0.979 µM (active)
CCNCCCCNCC,GI50,P388,1560 µM (inactive)
same,GI50,P388/ADR,> 3750 µM (inactive)
same,GI50,SN12K1,> 3750 µM (inactive)
COc1ccc2nc3c(C(=O)NCCN(C)C)cccc3cc2c1,GI50,P388,0.305 µM (active)
same,GI50,P388/ADR,0.652 µM (active)
same,GI50,SN12K1,0.944 µM (active)
NC(Cc1cc(I)c(O)c(I)c1)C(=O)O (configuration not stated),GI50,P388,21.6 µM (inactive)
same,GI50,P388/ADR,21.3 µM (inactive)
same,GI50,SN12K1,169 µM (inactive)
NC(=O)c1[nH]nc(C2OC(CO)C(O)C2O)c1O (configuration not stated),GI50,P388,0.5 µM (active)
same,GI50,P388/ADR,0.5 µM (active)
same,GI50,SN12K1,0.561 µM (active)
[N-]=[N+]=CC(=O)CCC(NC(=O)C(CCC(=O)C=[N+]=[N-])NC(=O)CCC(N)C(=O)O)C(=O)O (configuration not stated),GI50,P388,> 100 µM (inactive)
same,GI50,P388/ADR,> 100 µM (inactive)
same,GI50,SN12K1,> 100 µM (inactive)
Cc1cc([N+](=O)[O-])c(-c2ccc(/C=N/n3cnnc3)o2)cc1Cl,IC50,[4],1.59 µM (not active)
